The test system of assay [1] is carrageenan-induced edema. The experiment in a line: carrageenan edema test in rats. Format: in vivo, rat (female Sprague-Dawley). The settings on record: Rattus norvegicus, po; 80 mg/kg p.o., 30 min before carrageenan; edema weight 3 h after, vs control; preliminary; read-out: Potentiation of the carrageenan edema, %. An excerpt:
Another test, in which the effect of a drug corresponds to the effects obtained in the tests mentioned above, and which can therefore also be used, is the well-established carrageenan edema test in rats (5). Comparative evaluation of compounds of the present invention in the three tests mentioned has shown that compounds which increase the extent of the delayed hypersensitivity reaction in the pertussis vaccine pleurisy test and in the adjuvant arthritis test also increase the extent of carrageenan-induced edema in the carrageenan edema test, thus providing a further tool for the determination of enhancement of cell-mediated immunity.
This example illustrates the effect of the compounds of the general formula I in the carrageenan edema test in rats.
A modification of a method described in (5) was used. Female Sprague-Dawleyrats weighing 110-120 g was used. At least 10 animals were used in each experimental group. Foot edema was induced by injecting carrageenan in 0.9% NaCl into the plantar surface of the right hind paw of the rats.
The substances suspended in aqueous methocel solution 10 ml/kg were administered intragastrically 30 minutes before the injection of carrageenan. The control groups were given methocel solution 10 ml/kg.
Three hours after carrageenan injection the animals were killed. The hind feet were cut off and weighed. The difference in weight of the injected right paw and the uninjected left paw was called edema weight.
The effect of the substances was assessed by the edema weight expressed in percent after comparison with the control groups.
On the technique in general: The carrageenan paw model is a standard test of acute inflammation.

Assay [2] concerns delayed hypersensitivity reaction (adjuvant arthritis, Mycobacterium butyricum). The experiment in a line: adjuvant arthritis test in rats. Type of assay: in vivo, rat (male Lister hooded). An excerpt:
The adjuvant arthritis test in rats produces a measureable extent of a delayed hypersensitivity reaction and can be used for a determination of variations in the extent of the delayed hypersensitivity reaction upon drug administration to the host. An increase in the extent of the delayed hypersensitivity reaction upon drug administration consequently indicates enhanced cell-mediated immunity in the host.
This example illustrates the effect of the compounds of the general formula I in the adjuvant arthritis test in rats.
The adjuvant arthritis test in rats produces a delayed hypersensitivity reaction and can be used for a determination of variations of the delayed hypersensitivity reaction upon drug administration to the host. An increase in the extent of the delayed hypersensitivity reaction upon drug administration consequently indicates enhanced cell-mediated immunity in the host.
A modification of a method described in (12) was used. Male Lister hooded rats weighing 250-275 g were used. At least 9 animals were used in each experimental group.
A single intradermal injection of 0.5 mg/0.1 ml heat killed Mycobacterium butyricum suspended in sterile liquid paraffinum was given into the right hind foot of all rats. After this injection, day 0, the volume of the left hind paw, measured by water displacement, was followed to the end of the experiment.
The substances suspended in aqueous methocel solution 10 ml/kg were given intragastrically. The control group was given methocel solution 10 ml/kg. The different groups of animals were thus treated once daily from day -4 to day 14. The effect of the substances was assessed by the left foot volume expressed in percent after comparison with the control groups.

Assay [3] relates to delayed hypersensitivity reaction (pertussis vaccine pleurisy). The experiment in a line: pertussis vaccine pleurisy test in rats. Type of assay: in vivo, rat (male Sprague-Dawley). The settings on record: for change in vivo at 10 mg/kg: Rattus norvegicus, po, 48 h, read-out: Enhancement of the delayed hypersensitivity reaction assessed by the exudate vol. The gist of the method: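 Male Sprague-Dawley rats (250-275 g, ≥10/group) sensitized day 0 with heat-killed B. pertussis in Freund's incomplete adjuvant into hind and forepaw, challenged intrapleurally day 12. Compounds in aqueous methocel given intragastrically once daily days 10-13. Pleural exudate volume measured day 14, expressed as percent of methocel control.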

Where [4] appears, read: Rattus norvegicus, po, 336 h, 40 mg/kg p.o., once daily day -4 to day 14, vs control, preliminary, read-out: Increase of the volume of the left foot.
[5] abbreviates: 10 mg/kg p.o., once daily day 10 to day 13, vs control, preliminary.

Read-outs that look alike come from different tables or passages of the source.

Take `Cn1c(=O)c(C(=O)Nc2ccccc2)c(O)c2ccccc21` [1:1, N-phenyl-1,2-dihydro-4-hydroxy-1-methyl-2-oxo-quinoline-3-carboxamide]: the change in vivo at 80 mg/kg in assay [1] turned out to be 40%. In assay [2] (Rattus norvegicus, po, 336 h, 20 mg/kg p.o., once daily day -4 to day 14, vs control, preliminary, read-out: Increase of the volume of the left foot), the change in vivo at 20 mg/kg worked out at 50%. For the same molecule, the change in vivo at 40 mg/kg in assay [2] (setting [4]) amounted to 41%. For the same molecule, the change in vivo at 10 mg/kg in assay [3] (setting [5]) stood at 55%.
Consider `COc1ccc2c(c1)c(O)c(C(=O)Nc1ccccc1)c(=O)n2C` [1:2, N-phenyl-1,2-dihydro-4-hydroxy-6-methoxy-1-methyl-2-oxo-quinoline-3-carboxamide], for which, in assay [1], the change in vivo at 80 mg/kg was 61%. Moreover, the “significant potentiating effect in the adjuvant arthritis test” value in assay [2] (40 mg/kg p.o.) is reported as “significant potentiating effect”. The “significant enhancing effect in the pertussis vaccine pleurisy test” value in assay [3] (10 mg/kg p.o.) was “significant enhancing effect”.
In the same order, the values of `Cn1c(=O)c(C(=O)Nc2ccc(Cl)cc2)c(O)c2ccccc21` [1:9, N-/4-chlorophenyl/-1,2-dihydro-4-hydroxy-1-methyl-2-oxo-quinoline-3-carboxamide] are 48%, “significant potentiating effect” and “significant enhancing effect”.
Regarding `CCn1c(=O)c(C(=O)Nc2ccccc2)c(O)c2ccccc21` [1:10, N-phenyl-1,2-dihydro-1-ethyl-4-hydroxy-2-oxo-quinoline-3-carboxamide], the change in vivo at 80 mg/kg in assay [1] is 68%. In assay [2] (40 mg/kg p.o.), the “significant potentiating effect in the adjuvant arthritis test” value is recorded as “significant potentiating effect”. Besides, the change in vivo at 10 mg/kg in assay [3] (setting [5]) amounted to 30%.
`CN(C)c1ccc(NC(=O)c2c(O)c3ccccc3n(C)c2=O)cc1` [1:11, N-/4-dimethylaminophenyl/-1,2-dihydro-4-hydroxy-1-methyl-2-oxo-quinoline-3-carboxamide]: the change in vivo at 80 mg/kg in assay [1] was found to be 76%. For the same molecule, the change in vivo at 40 mg/kg in assay [2] (setting [4]) came to 45%. The change in vivo at 10 mg/kg in assay [3] (setting [5]) stood at 37%.
Take `Cn1c(=O)c(C(=O)Nc2ccc(CC(=O)O)cc2)c(O)c2ccccc21` [1:12, N-/4-carboxymethylphenyl/-1,2-dihydro-4-hydroxy-1-methyl-2-oxo-quinoline-3-carboxamide]: the change in vivo at 80 mg/kg in assay [1] worked out at 29%. In addition, the “significant potentiating effect in the adjuvant arthritis test” value in assay [2] (40 mg/kg p.o.) is listed as “significant potentiating effect”. The change in vivo at 10 mg/kg in assay [3] (setting [5]) worked out at 65%.
`Cn1c(=O)c(C(=O)Nc2ccccc2)c(O)c2c(F)cccc21` [1:19, N-phenyl-1,2-dihydro-5-fluoro-4-hydroxy-1-methyl-2-oxo-quinoline-3-carboxamide]: the change in vivo at 80 mg/kg in assay [1] came to 67%. For the same molecule, the “significant potentiating effect in the adjuvant arthritis test” value in assay [2] (40 mg/kg p.o.) was “significant potentiating effect”. In addition, in assay [3] (10 mg/kg p.o.), the “significant enhancing effect in the pertussis vaccine pleurisy test” value is reported as “significant enhancing effect”.
In the same order, the values of `COc1cccc2c(O)c(C(=O)Nc3ccccc3)c(=O)n(C)c12` [1:22, N-phenyl-1,2-dihydro-4-hydroxy-8-methoxy-1-methyl-2-oxo-quinoline-3-carboxamide] are 58%, “significant potentiating effect” and “significant enhancing effect”.
Take `CN(C(=O)c1c(O)c2ccccc2n(C)c1=O)c1ccc(O)cc1` [21:11, N-(4-hydroxyphenyl)-N-methyl-1,2-dihydro-4-hydroxy-1-methyl-2-oxo-quinoline-3-carboxamide]: in assay [2] (40 mg/kg p.o.), the “significant potentiating effect in the adjuvant arthritis test” value is recorded as “significant potentiating effect”. Moreover, the change in vivo at 10 mg/kg in assay [3] (setting [5]) turned out to be 34%.
For the molecule `COc1cccc(N(C)C(=O)c2c(O)c3cc(C)ccc3n(C(C)C)c2=O)c1` [21:17, N-(3-methoxyphenyl)-N-methyl-1,2-dihydro-4-hydroxy-1-isopropyl-6-methyl-2-oxo-quinoline-3-carboxamide], the “significant potentiating effect in the adjuvant arthritis test” value in assay [2] (40 mg/kg p.o.) is listed as “significant potentiating effect”. Also, in assay [3] (10 mg/kg p.o.), the “significant enhancing effect in the pertussis vaccine pleurisy test” value is given as “significant enhancing effect”.
With `CN(C(=O)c1c(O)c2ccccc2n(-c2ccc(F)cc2)c1=O)c1ccc(N2CCCC2)cc1` [21:19, N-methyl-N-(4-pyrrolidinophenyl)-1-(4-fluorophenyl)-1,2-dihydro-4-hydroxy-2-oxo-quinoline-3-carboxamide], the “significant potentiating effect in the adjuvant arthritis test” value in assay [2] (40 mg/kg p.o.) is “significant potentiating effect”.
`CN(C(=O)c1c(O)c2ccccc2n(C)c1=O)c1cnccn1` [21:23, N-methyl-N-pyrazinyl-1,2-dihydro-4-hydroxy-1-methyl-2-oxo-quinoline-3-carboxamide]: the “significant potentiating effect in the adjuvant arthritis test” value in assay [2] (40 mg/kg p.o.) is recorded as “significant potentiating effect”. Besides, the “significant enhancing effect in the pertussis vaccine pleurisy test” value in assay [3] (10 mg/kg p.o.) is “significant enhancing effect”.
The matching figures for `Cc1cc(N(C)C(=O)c2c(O)c3cc(Cl)ccc3n(C)c2=O)sn1` [21:24, N-methyl-N-(3-methyl-5-isothiazolyl)-6-chloro-1,2-dihydro-4-hydroxy-1-methyl-2-oxo-quinoline-3-carboxamide]: “significant potentiating effect” and “significant enhancing effect”.
The matching figures for `CCN(C(=O)c1c(O)c2cc(N(C)C)ccc2n(C)c1=O)c1ccccn1` [21:26, N-ethyl-N-2-pyridyl-1,2-dihydro-6-dimethylamino-4-hydroxy-1-methyl-2-oxo-quinoline-3-carboxamide]: “significant potentiating effect” and “significant enhancing effect”.
In the same order, the values of `COc1ccc(N(C)C(=O)c2c(O)c3cccc4c3n(c2=O)CC4)cc1` [21:28, N-(4-methoxyphenyl)-N-methyl-1,2-dihydro-1,8-ethylene-4-hydroxy-2-oxo-quinoline-3-carboxamide] are “significant potentiating effect” and “significant enhancing effect”.
For `CN(C)c1ccc(N(C)C(=O)c2c(O)c3cccc4c3n(c2=O)CC4)cc1` [21:30, N-(4-dimethylaminophenyl)-N-methyl-1,2-dihydro-1,8-ethylene-4-hydroxy-2-oxo-quinoline-3-carboxamide], in assay [2] (40 mg/kg p.o.), the “significant potentiating effect in the adjuvant arthritis test” value was “significant potentiating effect”. Besides, the “significant enhancing effect in the pertussis vaccine pleurisy test” value in assay [3] (10 mg/kg p.o.) is “significant enhancing effect”.
As for `CN(C(=O)c1c(O)c2cccc3c2n(c1=O)CC3)c1nccs1` [21:31, N-methyl-N-2-thiazolyl-1,2-dihydro-1,8-ethylene-4-hydroxy-2-oxo-quinoline-3-carboxamide], in assay [2] (40 mg/kg p.o.), the “significant potentiating effect in the adjuvant arthritis test” value is listed as “significant potentiating effect”. Besides, the “significant enhancing effect in the pertussis vaccine pleurisy test” value in assay [3] (10 mg/kg p.o.) is given as “significant enhancing effect”.
Regarding `CCN(C(=O)c1c(O)c2cccc3c2n(c1=O)CCC3)c1ccccn1` [21:33, N-ethyl-N-2-pyridyl-1,2-dihydro-4-hydroxy-2-oxo-1,8-trimethylene-quinoline-3-carboxamide], in assay [2] (40 mg/kg p.o.), the “significant potentiating effect in the adjuvant arthritis test” value is recorded as “significant potentiating effect”. Also, the “significant enhancing effect in the pertussis vaccine pleurisy test” value in assay [3] (10 mg/kg p.o.) is recorded as “significant enhancing effect”.
Take `CC(C)(S)[C@@H](N)C(=O)O` [Penicillamine, penicillamine, reference compound]: in assay [2] (Rattus norvegicus, po, 336 h, read-out: Increase of the volume of the left foot), the change in vivo at 40 mg/kg was determined as 0%. For the same molecule, the change in vivo at 10 mg/kg in assay [3] was 17%.

These data come from patent US4738971A, “N-aryl-1,2-dihydro-4-substituted-1-alkyl-2-oxo-quinoline-3-carboxamides” (priority 1981, dated 1988).
